From the supplement of paper PMC10307832

How the values were obtained:
Test in all cases: relative viability (nuclei count vs DMSO), 5 days (fraction); higher = more cells survive
IMD-0354 = compound: O=C(Nc1cc(C(F)(F)F)cc(C(F)(F)F)c1)c1cc(Cl)ccc1O [IMD-0354]
Outline: (§1)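 Hoechst staining, done together with fixation and permeabilisation, marked nuclei for 4× imaging and MetaXpress counting. This followed 5 days without medium change after lung cancer cell lines, kept overnight at 37 °C in 1536-well plates, were pinned with five library-drug doses (not always all listed) spaced by √10 on vehicle-anchored plates. Viability is the ratio of treated-well to vehicle-well nuclei, expressed as a median across plates. Plates passed only at control CV below 25% with at least one doubling.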

CX-5461 = compound: Cc1cnc(CNC(=O)c2c(=O)c3ccc(N4CCCN(C)CC4)nc3n3c2sc2ccccc23)cn1 [CX-5461]
Outline: as §1

IMD-0354 + Pemetrexed = compound: O=C(Nc1cc(C(F)(F)F)cc(C(F)(F)F)c1)c1cc(Cl)ccc1O [IMD-0354] + Nc1nc2[nH]cc(CCc3ccc(C(=O)N[C@@H](CCC(=O)O)C(=O)O)cc3)c2c(=O)[nH]1 [Pemetrexed] (partner 0.2 µM)
Outline: (§2)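 Medians of duplicate plates are given as relative viability. That measure is the nuclei count in treated wells divided by the count in vehicle wells. Counts were taken on 4× images of lung cancer cell lines in 1536-well plates, 5 days after pin-tool dosing the day after seeding with one drug alone or a fixed anchor-drug dose plus five library-drug doses (not always all listed) in √10 steps.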

CX-5461 + OSI-027 = compound: Cc1cnc(CNC(=O)c2c(=O)c3ccc(N4CCCN(C)CC4)nc3n3c2sc2ccccc23)cn1 [CX-5461] + COc1cccc2cc(-c3nc([C@H]4CC[C@H](C(=O)O)CC4)n4ncnc(N)c34)[nH]c12 [OSI-027] (partner 0.5 µM)
Outline: as §2

Row | Cell Line | relative viability (IMD-0354; 0.04 µM) | relative viability (IMD-0354; 0.1265 µM) | relative viability (IMD-0354; 0.4 µM) | relative viability (IMD-0354; 1.265 µM) | relative viability (IMD-0354; 4 µM) | relative viability (CX-5461; 0.01 µM) | relative viability (CX-5461; 0.03162 µM) | relative viability (CX-5461; 0.1 µM) | relative viability (CX-5461; 0.3162 µM) | relative viability (CX-5461; 1 µM) | relative viability (IMD-0354 + Pemetrexed; first compound 0.04 µM) | relative viability (IMD-0354 + Pemetrexed; first compound 0.1265 µM) | relative viability (IMD-0354 + Pemetrexed; first compound 0.4 µM) | relative viability (IMD-0354 + Pemetrexed; first compound 1.265 µM) | relative viability (IMD-0354 + Pemetrexed; first compound 4 µM) | relative viability (CX-5461 + OSI-027; first compound 0.01 µM) | relative viability (CX-5461 + OSI-027; first compound 0.03162 µM) | relative viability (CX-5461 + OSI-027; first compound 0.1 µM) | relative viability (CX-5461 + OSI-027; first compound 0.3162 µM) | relative viability (CX-5461 + OSI-027; first compound 1 µM)
1 | HCC-78 | 0.988 | 0.989 | 0.579 | 0.586 | 0.487 | 1.01 | 0.879 | 0.941 | 0.907 | 0.902 | 0.972 | 0.885 | 0.637 | 0.96 | 0.902 | 0.409 | 0.362 | 0.366 | 0.363 | 0.354
2 | HCC-366 | 1.04 | 1.09 | 0.543 | 0.111 | 0.0465 | 1.11 | 1.02 | 1 | 1.02 | 0.322 | 0.18 | 0.181 | 0.0918 | 0.0649 | 0.0246 | 0.987 | 1 | 0.89 | 0.764 | 0.175
3 | HCC-827 | 1.06 | 1.05 | 0.736 | 0.439 | 0.258 | 1.02 | 1.02 | 1.03 | 1.01 | 0.933 | 0.26 | 0.267 | 0.243 | 0.19 | 0.163 | 0.838 | 0.828 | 0.79 | 0.757 | 0.735
4 | HOP-62 | 1.03 | 1.08 | 0.639 | 0.38 | 0.13 | 1.02 | 1.05 | 1.08 | 0.893 | 0.899 | 0.348 | 0.308 | 0.268 | 0.141 | 0.0739 | 0.824 | 0.941 | 0.83 | 0.93 | 0.594
5 | IA-LM | 0.791 | 0.875 | 0.529 | 0.389 | 0.128 | 0.987 | 0.933 | 1 | 1.03 | 0.561 |  |  |  |  |  |  |  |  |  | 
6 | LC-2-ad | 0.948 | 0.976 | 0.579 | 0.193 | 0.17 | 0.981 | 1.02 | 0.955 | 0.978 | 0.749 | 0.29 | 0.268 | 0.276 | 0.189 | 0.145 | 0.919 | 0.866 | 0.705 | 0.718 | 0.546
7 | LCLC-97TM1 | 0.97 | 0.938 | 0.639 | 0.384 | 0.128 | 0.881 | 1.14 | 0.992 |  | 0.746 | 0.202 | 0.162 | 0.102 | 0.0974 | 0.0756 | 0.483 | 0.591 | 0.49 |  | 0.484
8 | LCLC-103H | 1.02 | 1.01 | 0.653 | 0.457 | 0.331 | 1.02 | 1.05 | 0.969 | 0.944 | 0.969 | 0.518 | 0.491 | 0.446 | 0.317 | 0.266 | 0.458 | 0.433 | 0.434 | 0.446 | 0.384
9 | LK-2 | 1.19 | 0.986 |  | 1 | 0.271 | 0.89 | 1.07 | 1.13 |  | 0.783 | 0.284 | 0.31 |  | 0.172 | 0.111 | 0.268 | 0.173 | 0.185 | 0.162 | 0.179
10 | LOU-NH91 | 1.1 | 1 | 0.353 | 0.252 | 0.273 | 1.07 | 1.01 | 0.997 | 0.574 | 0.845 | 0.359 | 0.472 | 0.25 | 0.206 | 0.304 | 0.756 | 0.728 | 0.714 |  | 0.727
11 | LU99A | 0.726 | 0.95 | 0.788 | 0.326 | 0.236 | 0.974 | 0.95 | 1.23 | 0.603 | 0.356 | 0.194 | 0.201 | 0.143 | 0.188 | 0.149 | 0.338 | 0.295 | 0.333 | 0.257 | 0.258
12 | LXF-289 | 1.02 | 1.05 | 0.86 | 0.337 | 0.207 | 0.988 | 1.01 | 1.06 | 0.87 | 0.745 | 0.898 | 0.884 | 0.868 | 0.26 | 0.129 | 0.755 | 0.924 | 0.892 | 0.416 | 0.581
13 | NCI-H23 | 1.14 | 0.942 | 0.518 | 0.195 | 0.2 | 1.05 | 1.04 | 0.856 | 0.773 | 0.544 | 0.78 | 0.693 | 0.324 | 0.18 | 0.235 | 0.672 | 0.757 | 0.546 | 0.544 | 0.343
14 | NCI-H322M | 0.992 | 1.09 | 0.805 | 0.406 | 0.331 | 0.923 | 0.987 | 1.03 | 0.491 | 0.731 | 0.673 | 0.65 | 0.543 | 0.332 | 0.422 | 0.534 | 0.552 | 0.578 | 0.389 | 0.393
15 | NCI-H727 | 0.838 | 0.908 | 0.732 | 0.494 | 0.509 | 1.07 | 1.03 | 1.03 | 0.875 | 0.78 |  |  |  |  |  | 0.59 | 0.866 | 0.622 | 0.58 | 0.584
16 | NCI-H1299 | 0.85 | 1.02 | 0.638 | 0.221 | 0.179 | 0.998 | 0.99 | 1.02 | 1.01 | 0.944 |  |  |  |  |  |  |  |  |  | 
17 | NCI-H1623 | 0.962 | 1 | 1.02 | 0.992 | 0.451 | 1.18 | 0.979 | 0.904 | 0.674 | 0.94 |  |  |  |  |  | 0.394 | 0.434 | 0.481 | 0.41 | 0.417
18 | NCI-H1703 | 1.11 | 1.02 | 0.507 | 0.282 | 0.14 | 0.955 | 1.06 | 0.91 | 1.09 | 0.569 |  |  |  |  |  |  |  |  |  | 
